Values of other authors, collected in patent publication US20250041332A1, “SYSTEMIC INJECTION OF SUPERHEATED PERFLUOROCARBON EMULSION TO IMPROVE VENTILATION AND REDUCE VENTILATOR-INDUCED LUNG INJURY” (THE BOARD OF REGENTS OF THE UNIVERSITY OF TEXAS SYSTEM, priority 2021, published 2025).
Where two headings read alike, the source gives them in different places. Values belong to the compound of their own block, whether it stands above or below them.

Key:
[1] = intravenous

Time in which half the dose is recovered from the exhaled gas [1]: 3 to 12 days
Compound: FC(F)(F)C(F)(F)C(F)(F)C(F)(F)C(F)(F)C(F)(F)C(F)(F)C(F)(F)Br [PFOB, perfluorooctyl bromide]

Vapor pressure (at 25° C.): about 330.3 kPa
Vapor pressure (temperature not given): approximately 330 kPa
Compound: FC(F)(F)C(F)(F)C(F)(F)C(F)(F)F [perfluorobutane]

Vapor pressure (at 25° C.): about 83.99 kPa
Compound: FC(F)(F)C(F)(F)C(F)(F)C(F)(F)C(F)(F)F [perfluoropentane]

Vapor pressure (at 21.1° C.): about 792 kPa
Compound: FC(F)(F)C(F)(F)C(F)(F)F [perfluoropropane]
